From the OPERA property sets (Mansouri et al. 2018)

Compound: C/C=C/Cl
- boiling point: 35.2 °C
- log10 vapour pressure (mmHg): 2.71
- melting point: -117 °C

Compound: CC(C)(C)c1cc(C(=O)O)c(O)c(C(C)(C)C)c1
- ready biodegradability: not readily biodegradable

Compound: CN(C)O
- log10 vapour pressure (mmHg): 1.33
- melting point: 108 °C

Compound: CCC(C)(C)C(=O)Cl
- boiling point: 132 °C

Compound: OCC(F)(F)C(F)(F)C(F)(F)C(F)(F)C(F)(F)C(F)F
- ready biodegradability: not readily biodegradable

Compound: CC1CCCC(Br)C1 (stereo not drawn)
- boiling point: 181 °C

Compound: C1CN2CCN1CC2
- boiling point: 174 °C
- log10 vapour pressure (mmHg): -0.13
- melting point: 159 °C
- ready biodegradability: not readily biodegradable

Compound: CC(=O)c1ccco1
- boiling point: 175 °C
- melting point: 33 °C

Compound: CCCCCS(=O)CCCCC
- melting point: 58 °C

Compound: FC(F)(F)C(=NOCC1OCCO1)c1ccc(Cl)cc1
- log10 vapour pressure (mmHg): -3.55

Compound: [O-][n+]1onc2ccccc21
- melting point: 70 °C

Compound: C[C@H]1CCC(=O)N1
- boiling point: 248 °C
- melting point: 43 °C

Compound: O=C(O)C=CC=Cc1ccc2c(c1)OCO2
- melting point: 215 °C

Compound: CC(C)[C@@H](Br)C(=O)O
- boiling point: 230 °C
- melting point: 44 °C

Compound: Clc1cccc(-c2cc(Cl)c(Cl)cc2Cl)c1
- log10 Henry constant (atm·m³/mol): -4

Compound: FCC(F)(F)C(F)F
- boiling point: 26 °C
- log10 vapour pressure (mmHg): 2.88
- melting point: -82 °C

Compound: CCCCCCCCCCCCCCCCCCNC(=O)N1CC1
- ready biodegradability: not readily biodegradable

Compound: CCCN(CCC)c1c([N+](=O)[O-])cc(C(F)(F)F)c(N)c1[N+](=O)[O-]
- log10 Koc (L/kg): 4.11
- log10 vapour pressure (mmHg): -7.61
- melting point: 124 °C

Compound: COCC#N
- boiling point: 119 °C

Compound: COC(=O)C(C)C(C)=O (stereo not drawn)
- boiling point: 177 °C

Compound: CCN1C[C@]2(COC)[C@H](O)C[C@H](OC)[C@]34C1[C@H]([C@H](OC)[C@H]23)[C@]1(OC(C)=O)[C@H]2[C@@H](OC(=O)c3ccccc3)[C@](O)(C[C@H]24)[C@@H](OC)[C@@H]1O
- melting point: 204 °C

Compound: CCOC(=O)CC(SP(=O)(OC)OC)C(=O)OCC (stereo not drawn)
- log10 vapour pressure (mmHg): -5.01
- log10 BCF (fish): 0.05
- log10 biotransformation half-life (days) (fish): -1.04

Compound: Cc1c(Cl)cccc1Nc1ncccc1C(=O)O
- melting point: 234 °C

Compound: CN1CCN(CCCN2c3ccccc3Sc3ccc(C(F)(F)F)cc32)CC1.Cl.Cl
- melting point: 240 °C

Compound: c1cc(-c2ccncc2)ccn1
- boiling point: 305 °C
- log10 vapour pressure (mmHg): -4.25
- melting point: 111 °C

Compound: CC(=O)Oc1ccc(Cl)cc1Cl
- boiling point: 244 °C

Compound: C=C(C)C(=O)OCCOCCOCCOCCOC(=O)C(=C)C
- boiling point: 220 °C

Compound: COc1ccc(NC(C)=O)cc1N
- ready biodegradability: not readily biodegradable

Compound: C[C@]1(C(=O)O)CCC[C@]2(C)c3cc(O)ccc3CC[C@@H]12
- melting point: 194 °C

Compound: COc1ccc(N)cc1
- boiling point: 243 °C
- log10 Henry constant (atm·m³/mol): -7.18
- log10 Koc (L/kg): 1.93
- log10 vapour pressure (mmHg): -1.52
- melting point: 57.2 °C
- ready biodegradability: readily biodegradable

Compound: COc1ccc(/C=C/NC=O)cc1
- melting point: 132 °C

Compound: CC(C)CCCCCCO
- boiling point: 206 °C
- melting point: 64.5 °C

Compound: Cc1cccc2c1C=CC2
- boiling point: 209 °C

Compound: O=C(O)Cc1c(F)c(F)c(F)c(F)c1F
- melting point: 109 °C

Compound: Cc1cc(NS(=O)(=O)c2ccc(N)cc2)nc(C)n1
- melting point: 243 °C

Compound: CC(C)COC(=O)c1ccc(C(=O)OCC(C)C)cc1
- melting point: 55 °C

Compound: NC(=O)C(Cl)Cl
- boiling point: 234 °C
- melting point: 99.4 °C

Compound: COC(=O)c1ccc(Cl)c([N+](=O)[O-])c1
- melting point: 83 °C

Compound: CCOC(=O)C=CC(=O)O
- melting point: 70 °C

Compound: CCCCOS(=O)(=O)OCCCC
- log10 vapour pressure (mmHg): -1.93

Compound: CN(C)c1ccc(N=C2C=CC(=O)C=C2)cc1
- melting point: 134 °C

Compound: CCCOP(=O)(OCCC)Oc1ccc(SC)cc1
- log10 vapour pressure (mmHg): -6.05

Compound: O=Cc1ccc([N+](=O)[O-])cc1
- melting point: 107 °C

Compound: CC(Br)CCBr (stereo not drawn)
- boiling point: 174 °C

Compound: Clc1cc(Cl)cc(Oc2ccccc2)c1
- log10 vapour pressure (mmHg): -3

Compound: C=CCOCC1CO1 (stereo not drawn)
- boiling point: 154 °C

Compound: Nc1ccc2c(c1)Cc1cc(N)ccc1-2
- melting point: 166 °C

Compound: O=c1oc2cc(O)ccc2s1
- melting point: 160 °C

Compound: CC(=O)OCC(=O)[C@H]1CC[C@H]2[C@@H]3CCC4=CC(=O)CC[C@]4(C)[C@H]3CC[C@]12C
- melting point: 157 °C

Compound: CCCCNC
- boiling point: 91 °C
- melting point: -75 °C

Compound: CCC(=O)c1ccc(Br)cc1
- melting point: 48 °C

Compound: O=c1c2ccccc2nc2n1CCc1c-2[nH]c2ccccc12
- melting point: 260 °C

Compound: COc1cc(C=O)ccc1O
- boiling point: 285 °C
- log10 vapour pressure (mmHg): -3.93
- melting point: 81.5 °C
- ready biodegradability: readily biodegradable

Compound: CCOCCCl
- boiling point: 108 °C

Compound: CCC1(CC)C(=O)NC(=S)NC1=O
- melting point: 180 °C

Compound: CC(C)C(=O)O
- boiling point: 154 °C
- log10 Henry constant (atm·m³/mol): -6.05
- log10 vapour pressure (mmHg): 0.258
- melting point: -46 °C
- ready biodegradability: readily biodegradable

Compound: CCOP(=S)(S)OCC
- melting point: -10 °C
- ready biodegradability: not readily biodegradable
- log10 BCF (fish): 0.7

Compound: CCOC(C)C
- boiling point: 54.1 °C

Compound: O=C(O)[C@@H]1CCCN1C(=O)OCc1ccccc1
- melting point: 77 °C

Compound: C1CNCCN1
- boiling point: 146 °C
- log10 vapour pressure (mmHg): -0.796
- ready biodegradability: not readily biodegradable
- log10 BCF (fish): 0.59

Compound: O=C1CCCCC1C1CCCCC1 (stereo not drawn)
- boiling point: 264 °C
- melting point: -32 °C

Compound: OCc1c[nH]c2ccccc12
- melting point: 97.5 °C

Compound: CC(=O)O[C@]1(C(C)=O)CC[C@H]2[C@@H]3C=C(Cl)C4=CC(=O)C=C[C@]4(C)[C@H]3CC[C@@]21C
- melting point: 168 °C

Compound: CC(NNC(=O)c1ccccc1)c1ccccc1 (stereo not drawn)
- melting point: 93.5 °C

Compound: Nc1ccc([N+](=O)[O-])cc1O
- melting point: 208 °C
